Data set [1] concerns Hepatitis B virus. Nature of the data set: In vivo antiviral activity against AAV encapsidated HBV infected in C57BL/6 mouse model assessed as log reduction in serum HBV DNA level at 20 mg/kg, BID measured on day 4 by quantitative real-time PCR analysis. It is filed as functional. The conditions noted are these: time 4 day. Background: Real-time PCR tracks product formation cycle by cycle.

The nature of data set [2]: AUC (0 to infinity) in C57BL/6 mouse plasma at 2 mg/kg, iv administered as single dose measured upto 24 hrs by LC-MS/MS analysis. The data set is classed as ADME, organism-based. Set-up: dose 2 mg/kg, time < 24 hrs, route iv.
Data set [3] in a line: Cytotoxicity against human HepDE19 cells assessed as reduction in cell viability measured after 5 days by CCK-8 method. The data set is classed as functional. The conditions noted are these: HepDE19, 120 h, time 5 day. (In general: Formazan colour is commonly taken as a measure of viable cells.)
Data set [4] in a line: AUC (0 to infinity) in C57BL/6 mouse liver at 5 mg/kg, po administered as single dose measured upto 24 hrs by LC-MS/MS analysis. The data set is classed as ADME, organism-based. On the set-up: time < 24 hrs, dose 5 mg/kg, route po.
Data set [5] has as its system Hepatitis B virus. The data set is described as follows: Antiviral activity against HBV infected in human HepG2.2.15 cells assessed as reduction in HBV DNA replication measured after 5 days by qPCR analysis. It is filed as functional, organism-based. The conditions noted are these: HepG2.2.15, 120 h.
A short description of data set [6]: Plasma protein binding in mouse assessed as free fraction incubated for 5 hrs by LC-MS/MS analysis. The data set is classed as ADME, cell-free.
Data set [7] is described as follows: Lyophilization solubility of the compound in phosphate buffer at pH 6.5 incubated for 1 hr under stirring condition and 2 hrs under shaking condition by HPLC-UV analysis. The data set is classed as physicochemical.
A short description of data set [8]: Volume of distribution at steady state in C57BL/6 mouse plasma at 2 mg/kg, iv administered as single dose measured upto 24 hrs by LC-MS/MS analysis. It is filed as ADME, organism-based. The conditions noted are these: read-out: Vdss.
The test system of data set [9] is Hepatitis B virus. The data set is described as follows: In vivo antiviral activity against AAV encapsidated HBV infected in C57BL/6 mouse model assessed as reduction in serum HBV DNA level at 20 mg/kg, BID measured on day 6 by quantitative real-time PCR analysis. It is filed as functional, organism-based. The settings on record: time 6.0 day.
Data set [10] in a line: AUC (0 to infinity) in C57BL/6 mouse plasma at 5 mg/kg, po administered as single dose measured upto 24 hrs by LC-MS/MS analysis. The data set is classed as ADME, organism-based. Set-up: time < 24 hrs, dose 5 mg/kg, route po.
Data set [11] in a line: Metabolic stability in human liver microsomes assessed as clearance at 1 uM preincubated for 10 mins and measured upto 30 mins in presence of NADPH generating system by LC-MS/MS analysis. The data set is classed as ADME, Microsome. The settings on record: time < 40 min. Background: Liver microsomes are a subcellular fraction often used to study metabolism.
In data set [12] the test system is Hepatitis B virus. The data set is described as follows: In vivo antiviral activity against AAV encapsidated HBV infected in C57BL/6 mouse model assessed as log reduction in serum HBV DNA level at 20 mg/kg, BID measured on day 2 by quantitative real-time PCR analysis. The settings on record: time 2 day. It is filed as functional.
Data set [13] can be described thus: Half life in C57BL/6 mouse plasma at 2 mg/kg, iv administered as single dose measured upto 24 hrs by LC-MS/MS analysis. The data set is classed as ADME, organism-based.
Data set [14] in a line: Ratio of AUC (0 to infinity) in liver to plasma of C57BL/6 mouse liver at 5 mg/kg, po administered as single dose measured upto 24 hrs by LC-MS/MS analysis. The data set is classed as ADME, organism-based. The conditions noted are these: read-out: Ratio AUC.
Data set [15] in a line: Oral bioavailability in C57BL/6 mouse plasma at 5 mg/kg administered as single dose measured upto 24 hrs by LC-MS/MS analysis. The data set is classed as ADME, organism-based.
The nature of data set [16]: Metabolic stability in mouse liver microsomes assessed as clearance at 1 uM preincubated for 10 mins and measured upto 30 mins in presence of NADPH generating system by LC-MS/MS analysis. It is filed as ADME, Microsome. The conditions noted are these: time < 40 min.
Data set [17] is described as follows: Selectivity index, ratio of CC50 for human HepDE19 cells assessed as reduction in cell viability to EC50 for HBV infected in human HepG2.2.15 cells assessed as reduction in HBV DNA replication. The data set is classed as toxicity, cell-based. The settings on record: HBV-infected HepG2.2.15 cells (EC50).
Data set [18] is described as follows: Cmax in C57BL/6 mouse plasma at 5 mg/kg, po administered as single dose measured upto 24 hrs by LC-MS/MS analysis. It is filed as ADME, organism-based. On the set-up: dose 5 mg/kg, time < 24 hrs, route po.
Data set [19] is described as follows: Clearance in C57BL/6 mouse plasma at 2 mg/kg, iv administered as single dose measured upto 24 hrs by LC-MS/MS analysis. It is filed as ADME, organism-based.
Data set [20] can be described thus: AUC (0 to infinity) in C57BL/6 mouse plasma at 3 mg/kg, po administered as single dose measured upto 24 hrs by LC-MS/MS analysis. The data set is classed as ADME, organism-based. Set-up: time < 24 hrs, dose 3 mg/kg, route po.
Data set [21] is described as follows: Cmax in C57BL/6 mouse plasma at 3 mg/kg, po administered as single dose measured upto 24 hrs by LC-MS/MS analysis. The data set is classed as ADME, organism-based. Set-up: time < 24 hrs, dose 3 mg/kg, route po.
Data set [22] can be described thus: Clearance in C57BL/6 mouse plasma at 1 mg/kg, iv administered as single dose measured upto 24 hrs by LC-MS/MS analysis. It is filed as ADME, organism-based.
Data set [23] is described as follows: Half life in C57BL/6 mouse plasma at 1 mg/kg, iv administered as single dose measured upto 24 hrs by LC-MS/MS analysis. The data set is classed as ADME, organism-based.
The nature of data set [24]: Volume of distribution at steady state in C57BL/6 mouse plasma at 1 mg/kg, iv administered as single dose measured upto 24 hrs by LC-MS/MS analysis. It is filed as ADME, organism-based. The settings on record: read-out: Vdss.
Data set [25] in a line: Oral bioavailability in C57BL/6 mouse plasma at 3 mg/kg administered as single dose measured upto 24 hrs by LC-MS/MS analysis. The data set is classed as ADME, organism-based.
The nature of data set [26]: AUC (0 to infinity) in C57BL/6 mouse liver at 3 mg/kg, po administered as single dose measured upto 24 hrs by LC-MS/MS analysis. On the set-up: dose 3 mg/kg, time < 24 hrs, route po. It is filed as ADME, organism-based.
A short description of data set [27]: AUC (0 to infinity) in C57BL/6 mouse plasma at 1 mg/kg, iv administered as single dose measured upto 24 hrs by LC-MS/MS analysis. The data set is classed as ADME, organism-based. Set-up: dose 1 mg/kg, time < 24 hrs, route iv.
Data set [28] is described as follows: Ratio of AUC (0 to infinity) in liver to plasma of C57BL/6 mouse liver at 3 mg/kg, po administered as single dose measured upto 24 hrs by LC-MS/MS analysis. It is filed as ADME, organism-based. The settings on record: read-out: Ratio AUC.

In brackets after ≈: the same amount, converted by molar mass. Activity calls are given as the source filed them. The rule behind the calls is not given here.

What is called AUC(0-inf) is total exposure, with the tail of the curve extrapolated. High values mean high exposure, low ones low exposure. For orientation: CC50 means the concentration at which the toxic effect on the cells reaches its halfway point. As a reminder, the EC50 is the concentration that produces a half-maximal response. What is called fraction unbound is free concentration divided by total concentration. Usually solubility stands for the concentration that dissolves in the medium under given conditions. The half-life is how long it takes for the measured level to halve. The low end stands for rapid decline, the high end for slow decline. The bioavailability is dose-corrected exposure relative to a reference, in per cent. A higher bioavailability goes with much systemic uptake. One may read the Cmax as the highest concentration seen after dosing. As usually defined, the clearance is a measure of how efficiently the substance is removed, as volume per time. Read a high clearance as a high capacity for elimination. Consider `C[C@H]1Cn2ncc(N3CCOCC3=O)c2CN1C(=O)Nc1ccc(F)c(Cl)c1`, for which the “log(activity)” value in the data set with Hepatitis B virus [1] turned out to be 0.5; with Hepatitis B virus [12], 0.67. For the same compound, the values for the AUC(0-inf) in data set [2], in [4] and in [10] were 3520 ng·h/mL, 10900 ng·h/mL and 4180 ng·h/mL, respectively. Further, the CC50 in data set [3] was above 100000 nM. For the same compound, in the data set on Hepatitis B virus [5], the EC50 amounted to 27 nM. For the same compound, the fraction unbound at 5 h in data set [6] stood at 0.31. This compound also yielded a solubility at 3 h in [7] of 156 µg/mL (≈ 383 µM). Further, the Vd in [8] is 1.4 L/kg. In addition, the result in the data set with Hepatitis B virus [9] was inactive. The CLhep predicted at 1 µM in data set [11] is 7.1 mL/min/kg; in data set [16], 39 mL/min/kg. The half-life in [13] was 2 h. Besides, the Kp at 24 h in data set [14] is 2.6. Also, the bioavailability in data set [15] came to 48%. Moreover, the selectivity ratio in data set [17] was above 3700. This compound displayed a Cmax in data set [18] of 1330 ng/mL. In addition, in data set [19], the clearance is 10 mL/min/kg.

As for `O=C(Nc1ccc(F)cc1)N1CCn2ncc(-c3ccc(F)cc3)c2C1`, the CC50 in data set [3] was determined as 55000 nM. The AUC(0-inf) turned out to be 276 ng·h/mL in [20], 5110 ng·h/mL in data set [26] and 208 ng·h/mL in data set [27]. In [21], this compound yielded a peak concentration (Cmax) of 407 ng/mL. Also, the EC50 in the data set with Hepatitis B virus [5] stood at 124 nM. In [7], this compound registered a solubility at 3 h below 1 µg/mL. The compound also had a clearance in data set [22] of 146 mL/min/kg. In addition, the half-life in data set [23] was 0.36 h. In addition, the results for the CLhep predicted at 1 µM in data set [11] and in data set [16] were 14 mL/min/kg and 56 mL/min/kg, respectively. For the same compound, the Vd in data set [24] was determined as 2.1 L/kg. In data set [25], this compound yielded a bioavailability of 44%. Besides, the Kp at 24 h in [28] was found to be 18.5. The selectivity ratio in [17] stood at 443.

The record behind these values is ChEMBL document CHEMBL5370611, “Discovery of 4,5,6,7-Tetrahydropyrazolo[1.5-a]pyrizine Derivatives as Core Protein Allosteric Modulators (CpAMs) for the Inhibition of Hepatitis B Virus” (J Med Chem, 2023).
